Data taken from ChEMBL document CHEMBL1201862, “PubChem BioAssay data set” (2004).
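Growth conditions: 96-well plates. Treatment: test compound, 48 hours, 5 concentrations. Analysis: linear interpolation between bracketing concentrations; unreached endpoints set to highest concentration. Abbreviation: GI50, concentration required for 50% inhibition of growth.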 The source made the active and inactive calls. Rule as the data show it: active = GI50 up to about 1.1 µM and inactive = higher.

What was measured:
Assay in all cases: NCI-60 cell line screen, 48 h
SF-295 = system: SF-295
SN12C = system: SN12C
M14 = system: M14
XF498 = system: XF498
COLO 205 = system: COLO 205
Malme-3M = system: Malme-3M
SW-620 = system: SW-620
HCT-116 = system: HCT-116
OVCAR-4 = system: OVCAR-4
DLD-1 = system: DLD-1
K562 = system: K562
HOP-92 = system: HOP-92
NCI-H460 = system: NCI-H460
RPMI-8226 = system: RPMI-8226
LOX IMVI = system: LOX IMVI
OVCAR-5 = system: OVCAR-5
UO-31 = system: UO-31
TK-10 = system: TK-10
SNB-19 = system: SNB-19
RXF 393 = system: RXF 393
UACC-62 = system: UACC-62
SF-268 = system: SF-268
CAKI-1 = system: CAKI-1
NCI-H226 = system: NCI-H226
DMS-273 = system: DMS-273
SK-MEL-28 = system: SK-MEL-28
NCI-H522 = system: NCI-H522
DMS-114 = system: DMS-114
EKVX = system: EKVX
SK-MEL-5 = system: SK-MEL-5
A498 = system: A498
KM-20L2 = system: KM-20L2
NCI-H23 = system: NCI-H23
HCC 2998 = system: HCC 2998
KM12 = system: KM12
IGROV-1 = system: IGROV-1
SNB-78 = system: SNB-78
HOP-18 = system: HOP-18
OVCAR-8 = system: OVCAR-8
UACC-257 = system: UACC-257
OVCAR-3 = system: OVCAR-3
HL-60 = system: HL-60
SNB-75 = system: SNB-75
SK-OV-3 = system: SK-OV-3
SF-539 = system: SF-539
ACHN = system: ACHN
U-251 = system: U-251
MOLT-4 = system: MOLT-4
HT-29 = system: HT-29
A549 = system: A549
786-0 = system: 786-0
HOP-62 = system: HOP-62
LXFL 529 = system: LXFL 529

Measured: GI50

Cc1cc(C)nc(NS(=O)(=O)c2ccc(NC(=O)c3ccc(Cl)c4c(Nc5ccc(S(=O)(=O)N=C(N)N)cc5)c5ccccc5nc34)cc2)n1
inactive: SF-295 > 100 µM | SN12C 20.8 µM | M14 > 100 µM | XF498 > 100 µM | COLO 205 61.5 µM | Malme-3M > 100 µM | SW-620 17.4 µM | HCT-116 24 µM | OVCAR-4 59.2 µM | DLD-1 7.67 µM | K562 19 µM | HOP-92 25.5 µM | NCI-H460 > 10 µM | RPMI-8226 28.1 µM | LOX IMVI 17.8 µM | OVCAR-5 > 100 µM | UO-31 > 100 µM | TK-10 33.9 µM | SNB-19 > 100 µM | RXF 393 > 10 µM | UACC-62 36.3 µM | SF-268 35.1 µM | CAKI-1 > 100 µM | NCI-H226 > 100 µM | DMS-273 33.5 µM | SK-MEL-28 58.9 µM | NCI-H522 16.1 µM | DMS-114 29.9 µM | EKVX > 100 µM | SK-MEL-5 > 100 µM | A498 > 100 µM | KM-20L2 50.2 µM | NCI-H23 3.91 µM | HCC 2998 29.1 µM | KM12 37.9 µM | IGROV-1 63.8 µM | SNB-78 > 100 µM | HOP-18 > 100 µM | OVCAR-8 8.65 µM | UACC-257 51.8 µM | OVCAR-3 44.3 µM | HL-60 3.72 µM | SNB-75 > 100 µM | SK-OV-3 > 100 µM | SF-539 34 µM | ACHN > 100 µM | U-251 34.8 µM | MOLT-4 19.5 µM | HT-29 16.4 µM | A549 > 100 µM | 786-0 32.7 µM | HOP-62 > 100 µM | LXFL 529 44.3 µM
